From paper PMC11394167, “Purification and Identification of Novel Dipeptidyl Peptidase IV Inhibitory Peptides Derived from Bighead Carp (Hypophthalmichthys nobilis)” (Foods, 2024)
Like-named read-outs stand apart in the source and are kept apart here. Where a SMILES comes first, the peptide text is derived from it.

Assays:
DPP-IV [1] = biological target: T1, DPP-IV (Homo sapiens, UniProt P27487); experiment: DPP-IV inhibitor screening assay (KA1311 kit, Gly-Pro-AMC); type: biochemical; conditions: synthetic peptides; 37 °C, 30 min; Gly-Pro-AMC substrate; fluorescence ex 350 nm / em 460 nm; mean ± standard deviation (n = 3); read-out: IC50 (DPP-IV inhibition)
T1 construct: purchased Abnova KA1311
T1 sequence (P27487 whole entry): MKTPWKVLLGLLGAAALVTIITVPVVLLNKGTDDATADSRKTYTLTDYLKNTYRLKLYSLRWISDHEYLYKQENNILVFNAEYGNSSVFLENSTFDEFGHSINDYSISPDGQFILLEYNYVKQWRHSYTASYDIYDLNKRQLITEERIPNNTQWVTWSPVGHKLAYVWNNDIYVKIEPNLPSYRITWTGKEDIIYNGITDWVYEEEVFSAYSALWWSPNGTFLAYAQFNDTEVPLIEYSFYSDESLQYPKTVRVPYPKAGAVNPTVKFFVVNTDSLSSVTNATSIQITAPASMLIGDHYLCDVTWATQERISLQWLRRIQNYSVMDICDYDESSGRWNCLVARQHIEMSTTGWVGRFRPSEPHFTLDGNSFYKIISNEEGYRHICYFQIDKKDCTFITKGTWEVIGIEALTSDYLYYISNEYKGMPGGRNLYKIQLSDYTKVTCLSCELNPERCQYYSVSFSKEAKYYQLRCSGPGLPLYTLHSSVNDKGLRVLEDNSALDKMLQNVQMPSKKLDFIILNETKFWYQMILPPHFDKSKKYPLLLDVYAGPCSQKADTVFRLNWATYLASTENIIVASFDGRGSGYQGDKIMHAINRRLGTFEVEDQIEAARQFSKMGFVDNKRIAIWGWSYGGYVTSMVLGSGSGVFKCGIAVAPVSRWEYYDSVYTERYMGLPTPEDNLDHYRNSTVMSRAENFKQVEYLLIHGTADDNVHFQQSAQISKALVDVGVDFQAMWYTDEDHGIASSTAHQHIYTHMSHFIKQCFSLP
Experimental: The DPP-IV inhibition rate and the corresponding IC50 of each component were determined using the DPP-IV inhibitor screening assay kit (KA1311, Abnova, Taipei, Taiwan, China). For each component, extracts were mixed with buffer solution at various concentrations (1 mg/mL, 0.1 mg/mL, 0.05 mg/mL, 0.01 mg/mL), DPP-IV, and the substrate (Gly-Pro-AMC solution) in 96-well plates. The reaction was conducted at the normal human body temperature of 37 °C for 30 min. Free AMC (7-amino-4-methylcoumarin) was quantified using a multifunctional fluorescent zymography assay, with excitation light at 350 nm and emission light at 460 nm, and expressed as fluorescence intensity. The positive control utilized was 1 μg/mL of […]. A standard curve for all inhibition rates was plotted, and the maximum half inhibitory concentration (IC50) value of each peptide was determined using GraphPad Prism 9.5.1. DPP-IV inhibition (%) = {(F initial activity − F sample)/F initial activity} × 100%(2)
The DPP-IV inhibitory activity assay was performed in three parallel groups, and IC50 data were expressed as the mean ± standard deviation (S.D.). Data were analyzed using SPSS 20.0 software (SPSS Inc., Chicago, IL, USA) for unifactorial and bifactorial analyses, and the significance of the data was indicated by p < 0.05.

DPP-IV [2] = biological target: T1, DPP-IV; conditions: cited from earlier work
From the text: Diabetes is a chronic disease marked by high blood sugar levels and disruptions in fat and protein metabolism due to insulin resistance and deficiency. It is categorized into three types: type 1, type 2, and gestational diabetes. As reported by the International Diabetes Federation (IDF), approximately 537 million adults (aged 20–79 years) were living with diabetes in 2021, a number expected to rise to 700 million by 2045 [7]. Type 2 diabetes mellitus (T2DM) constitutes about 90% of these cases. Without treatment, T2DM can lead to severe complications such as coronary issues, retinopat ... || The results of mass spectrometry identification guided the screening of peptide sequences based on certain criteria. […] In the current landscape of research aiming to identify DPP-IV inhi ...

DPP-IV [3] = biological target: T1, DPP-IV; experiment: DPP-IV inhibition pattern (Lineweaver–Burk plots); type: biochemical; conditions: substrate 20, 15, 10, 5, 1 μM, peptide greater than IC50, less than IC50, and 0
Experimental: The pattern of DPP4 inhibition of synthetic peptides was further analyzed using Lineweaver–Burk plots. Images were plotted at different concentrations of substrates (20, 15, 10, 5, 1 μM) and peptide solution (concentration was greater than IC50, less than IC50, and 0) with 1/[S] as the X-value and 1/V as the Y-value. The mode of inhibition of DPP-IV by the synthetic peptide was determined based on the intercept of the Lineweaver–Burk curve.

[4] = side effects such as nausea; cited from earlier work
From the text: Diabetes is a chronic disease marked by high blood sugar levels and disruptions in fat and protein metabolism due to insulin resistance and deficiency. It is categorized into three types: type 1, type 2, and gestational diabetes. As reported by the International Diabetes Federation (IDF), approximately 537 million adults (aged 20–79 years) were living with diabetes in 2021, a number expected to rise to 700 million by 2045 [7]. Type 2 diabetes mellitus (T2DM) constitutes about 90% of these cases. Without treatment, T2DM can lead to severe complications such as coronary issues, retinopat ...

With `CC(C)[C@H](N)C(=O)N[C@@H](Cc1ccc(O)cc1)C(=O)N1CCC[C@H]1C(=O)O` [VYP] (H-Val-Tyr-Pro-OH) the IC50 (DPP-IV [1]) was 0.399 ± 0.0474 µM.
In the case of “WGDEHIPGSPYH [previously reported peptide from silver carp]”, the IC50 (DPP-IV [2]; from silver carp) is listed as 350 µM.
With `CC(C)C[C@H](NC(=O)CNC(=O)[C@@H]1CCCN1)C(=O)N[C@H](C(=O)NCC(=O)O)C(C)C` [PGLVG] (H-PGLVG-OH) the “effect on Km” value (DPP-IV [3]) was “Km is increased” and the IC50 (DPP-IV [1]) was 0.11 ± 0.0431 µM.
For “YYGYTGAFR [previously reported peptide from Atlantic salmon]”, the IC50 (DPP-IV [2]; from Atlantic salmon) is given as 1100 µM.
For `CC(C)[C@H](NC(=O)[C@@H](N)Cc1ccccc1)C(=O)N[C@@H](C)C(=O)O` [FVA] (H-Phe-Val-Ala-OH), the “effect on Km” value (DPP-IV [3]) was “increased Km” and the IC50 (DPP-IV [1]) was 0.402 ± 0.00528 µM.
In the case of “YPFPGP [previously reported peptide extracted from milk]”, the IC50 (DPP-IV [2]; extracted from milk) is listed as 749 µM.
For “GPAG [peptide (300.4 Da) from pig skin gelatin hydrolysate]”, the IC50 (DPP-IV [2]; peptides from pig skin gelatin hydrolysate) is given as 41.9 µM.
`O=C(CNC(=O)[C@@H]1CCCN1C(=O)[C@@H]1CCCN1)N[C@@H](Cc1ccccc1)C(=O)O` [PPGF] (H-PPGF-OH) showed an IC50 (DPP-IV [1]) of 0.00463 ± 0.00156 µM.
In the case of IPSK, the DPP-IV inhibitory effect (DPP-IV [2]; peptides from milk proteins) is listed as “DPP-IV inhibitory effects”.
In the case of `CN(C)C(=N)N=C(N)N` [Metformin], the “patients suffering from side effects” value [4] is given as “around 30%”.
